Structures are written as SMILES.

T1 sequence (Q92918 whole entry): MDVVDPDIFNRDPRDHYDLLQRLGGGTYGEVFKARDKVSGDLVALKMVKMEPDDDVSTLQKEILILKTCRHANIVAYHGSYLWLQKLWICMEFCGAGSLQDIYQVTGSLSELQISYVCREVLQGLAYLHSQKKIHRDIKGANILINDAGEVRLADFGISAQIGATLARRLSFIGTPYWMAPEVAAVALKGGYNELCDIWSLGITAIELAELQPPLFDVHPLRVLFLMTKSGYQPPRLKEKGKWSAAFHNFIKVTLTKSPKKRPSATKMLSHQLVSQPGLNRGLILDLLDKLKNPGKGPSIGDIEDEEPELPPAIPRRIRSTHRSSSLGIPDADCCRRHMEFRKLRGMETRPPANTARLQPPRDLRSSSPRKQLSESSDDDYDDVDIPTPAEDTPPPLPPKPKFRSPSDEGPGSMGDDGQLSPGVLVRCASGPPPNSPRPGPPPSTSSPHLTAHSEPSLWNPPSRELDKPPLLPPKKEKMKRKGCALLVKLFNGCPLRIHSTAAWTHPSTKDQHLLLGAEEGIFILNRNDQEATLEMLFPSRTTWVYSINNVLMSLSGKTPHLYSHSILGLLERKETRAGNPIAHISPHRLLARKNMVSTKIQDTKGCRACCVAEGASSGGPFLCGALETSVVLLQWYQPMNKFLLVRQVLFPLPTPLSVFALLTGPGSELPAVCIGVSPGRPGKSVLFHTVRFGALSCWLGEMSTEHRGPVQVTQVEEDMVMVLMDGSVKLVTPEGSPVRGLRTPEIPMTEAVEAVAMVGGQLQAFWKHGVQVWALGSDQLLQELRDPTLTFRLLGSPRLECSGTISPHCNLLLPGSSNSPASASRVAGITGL

The assay addresses T1, HPK1 (Homo sapiens, UniProt Q92918).
T1 construct: purchased Invitrogen
The experiment in a line: HPK1 biochemical enzyme assay (microfluidic mobility shift). Particulars: 1.5 nM HPK1 (Invitrogen), 1 mM ATP, 30 min preincubation, 60 min at RT, Caliper EZ Reader. As to the method:
HPK1 biochemical enzyme assay: HPK1 enzyme inhibition was measured using a microfluidic mobility shift assay. Reactions were performed in a 384-well plate, containing 1.5 nM HPK1 (Invitrogen), in assay buffer (Cama Biosciences; pH 7.4). Test compounds were titrated in ten point curves (top final assay concentration 3 μM), and preincubated with enzyme/substrate mix for 30 min prior to initiation of the reaction by addition of ATP (1 mM final concentration) and substrate (1 μM final concentration; Carna Biosciences) diluted in assay buffer supplemented by MgCl2 (final assay concentration of 5 mM). Following 60 min incubation at RT, the reaction was terminated by addition of 60 μl/well termination buffer (Carna Biosciences) and signal determination using a Caliper EZ Reader (Perkin Elmer, UK).
For `COC1CN(Cc2nc(Nc3ccc(-c4cnc5cnccn45)c4c3C(=O)NC4)ccc2C2CCOC2)C1` (stereo not drawn) [Compound I-41, 4-imidazo[1,2-a]pyrazin-3-yl-7-[[6-[(3-methoxyazetidin-1-yl)methyl]-5-tetrahydrofuran-3-yl-2-pyridyl]amino]isoindolin-1-one], the IC50 is over 1000 nM. To `COC1CN(Cc2nc(Nc3ccc(-c4cnc5cnccn45)c4c3C(=O)NC4)ccc2C2CCOC2)C1` (stereo not drawn) [Compound I-42, 4-imidazo[1,2-a]pyrazin-3-yl-7-[[6-[(3-methoxyazetidin-1-yl)methyl]-5-tetrahydrofuran-3-yl-2-pyridyl]amino]isoindolin-1-one] belongs at most 100 nM.

Take `CO[C@H]1CCN(Cc2nc(Nc3ccc(-c4cnc5cc(F)ccn45)c4c3C(=O)NC4)ccc2C2CCN(C)C(=O)C2)C1` (stereo partly drawn) [Compound I-43, 4-(7-fluoroimidazo[1,2-a]pyridin-3-yl)-7-[[6-[[(3S)-3-methoxypyrrolidin-1-yl]methyl]-5-(1-methyl-2-oxo-4-piperidyl)-2-pyridyl]amino]isoindolin-1-one]: the half-maximal inhibitory concentration (IC50) was at most 100 nM. `CO[C@H]1CCN(Cc2nc(Nc3ccc(-c4cnc5cc(F)ccn45)c4c3C(=O)NC4)ccc2C2CCN(C)C(=O)C2)C1` (stereo partly drawn) [Compound I-44, 4-(7-fluoroimidazo[1,2-a]pyridin-3-yl)-7-[[6-[[(3S)-3-methoxypyrrolidin-1-yl]methyl]-5-(1-methyl-2-oxo-4-piperidyl)-2-pyridyl]amino]isoindolin-1-one]: the IC50 is at most 100 nM. To `CN(C)Cc1cc(C2CCOC2)cc(Nc2ccc(-c3cnc4cc(F)ccn34)c3c2C(=O)NC3)n1` (stereo not drawn) [Compound I-46] belongs over 1000 nM; to `CN(C)Cc1nc(Nc2ccc(-c3cnc4cc(C#N)ccn34)c3c2C(=O)NC3)ccc1C1CCOC1` (stereo not drawn) [Compound I-47, 3-[7-[[6-[(dimethylamino)methyl]-5-tetrahydrofuran-3-yl-2-pyridyl]amino]-1-oxo-isoindolin-4-yl]imidazo[1,2-a]pyridine-7-carbonitrile], at most 100 nM; to `CCN1CCC(c2ccc(Nc3ccc(-c4cnc5cc(F)ccn45)c4c3C(=O)NC4)nc2CN(C)C)CC1=O` (stereo not drawn) [Compound I-48, 7-[[6-[(dimethylamino)methyl]-5-(1-ethyl-2-oxo-4-piperidyl)-2-pyridyl]amino]-4-(7-fluoroimidazo[1,2-a]pyridin-3-yl)isoindolin-1-one], at most 100 nM. The result for `CC(Oc1ccc(Nc2ccc(-c3cnc4cnccn34)c3c2C(=O)NC3)nc1CN(C)C)C1CC(F)(F)C1` (stereo not drawn) [Compound I-49, 7-[[5-[1-(3,3-difluorocyclobutyl)ethoxy]-6-[(dimethylamino)methyl]-2-pyridyl]amino]-4-imidazo[1,2-a]pyrazin-3-yl-isoindolin-1-one] reads at most 100 nM; that for `CN1CC[C@H](c2ccc(Nc3ccc(-c4cnc5cc(F)ccn45)c4c3C(=O)NC4)nc2)C1=O` [Compound I-53, (R)-4-(7-fluoroimidazo[1,2-a]pyridin-3-yl)-7-((5-(1-methyl-2-oxopyrrolidin-3-yl)pyridin-2-yl)amino)isoindolin-1-one], at most 100 nM.

Values taken from patent US20250011331A1 (Nimbus Saturn, Inc., priority 2021, published 2025).
